Source: paper PMC7525662, “Preclinical dosimetry models and the prediction of clinical doses of novel positron emission tomography radiotracers” (Scientific Reports, 2020)
Marks after values point to notes of the source that are not given here. Each block holds one compound with its values, some of them ahead of it.

How the values were obtained:
Set-up in all cases: species or system Sprague–Dawley rats
Details in all cases: rat, in vivo
[1] = OLINDA/EXM predicted clinical doses: adult male phantom, normalised τ, iterative
Method: (§1) PET studies were reconstructed using filtered-back projection (FBP) and Mediso’s iterative Tera-Tomo 3D reconstruction algorithm with the following settings: 4 iterations, 6 subsets, full detector model, normal regularization, spike filter on, voxel size 0.4 mm and 400‒600 keV energy window. PET data were corrected for randoms, scatter and attenuation. Time-activity curves for each source organ, whole-body and remainder of the body were plotted. […] Residence times (τ) were determined for each radiotracer in source organs, whole-body and remaining (any activity assigned to the whole-body but not assigned to a source organ). Each preclinical source organ’s τ was determined by calculating the area under its respective time-activity curve (activity normalised to the percentage maximum injected dose as a function of time) using the trapezoid method. […] From each individual animal, eight dosimetry models were constructed from all possible combinations of image reconstruction method (FBP or iterative), τ (non-normalised or normalised to human organ masses), and sex of phantom (male or female). Supplementary table 11. Predicted clinical absorbed organ doses and whole-body effective doses of PET radiotracers using normalised adult male source organ residence times from iterative reconstructions.

[2] = Comparison of predicted doses across the eight dosimetry models and radiotracers
Method: Time-activity curves for each source organ, whole-body and remainder of the body were plotted. […] Residence times (τ) were determined for each radiotracer in source organs, whole-body and remaining (any activity assigned to the whole-body but not assigned to a source organ). Each preclinical source organ’s τ was determined by calculating the area under its respective time-activity curve (activity normalised to the percentage maximum injected dose as a function of time) using the trapezoid method. […] From each individual animal, eight dosimetry models were constructed from all possible combinations of image reconstruction method (FBP or iterative), τ (non-normalised or normalised to human organ masses), and sex of phantom (male or female). All graphs and statistical analyses were generated and performed in GraphPad Prism 5.01 (GraphPad Software Inc., California, USA). One-way ANOVA followed by a Dunnett’s multiple comparison post-hoc test with [^18F]FDG as the control was used to determine which novel radiotracers’ biodistribution and dosimetry differed from [^18F]FDG in the same organs. All statistical tests used α = 0.05 as the measure for statistical significance. Bland–Altman plots were calculated as previously described[33],[34].

[3] = Residence times normalised to human organ masses, iterative reconstruction
Method: as §1, with “1. Scaling (normalisation) factors applied to residence times” for “11. Predicted clinical absorbed organ doses and whole-body effective doses”, “in male Sprague-Dawley rats to predict human” for “using normalised”, “adult” for “adult male source organ”, “times. […] Stabin et al. 2006 ^4); WB: Whole Body.” for “times from iterative reconstructions.”

[4] = OLINDA/EXM predicted clinical doses: adult female phantom, non-normalised τ, iterative
Method: as §1, with “table 10.” for “table 11.”, “using non-normalised (preclinical)” for “using normalised”, “adult female” for “adult male”

Effective Dose [1]: 2.46E-02 mSv/MBq
Estimated Absorbed Dose of Organ, Adrenals [1]: 9.55E-03 mGy/MBq
Estimated Absorbed Dose of Organ, Brain [1]: 1.47E-02 mGy/MBq
Estimated Absorbed Dose of Organ, Breasts [1]: 6.86E-03 mGy/MBq
Estimated Absorbed Dose of Organ, Gallbladder Wall [1]: 9.38E-03 mGy/MBq
Estimated Absorbed Dose of Organ, Heart Wall [1]: 8.18E-02 ‡ mGy/MBq
Estimated Absorbed Dose of Organ, Kidneys [1]: 2.30E-02 mGy/MBq
Estimated Absorbed Dose of Organ, LLI Wall [1]: 7.18E-02 § mGy/MBq
Estimated Absorbed Dose of Organ, Liver [1]: 9.11E-03 mGy/MBq
Estimated Absorbed Dose of Organ, Lungs [1]: 1.46E-02 mGy/MBq
Estimated Absorbed Dose of Organ, Muscle [1]: 8.37E-03 mGy/MBq
Estimated Absorbed Dose of Organ, Osteogenic Cells [1]: 1.16E-02 mGy/MBq
Estimated Absorbed Dose of Organ, Pancreas [1]: 1.00E-02 mGy/MBq
Estimated Absorbed Dose of Organ, Red Marrow [1]: 8.31E-03 mGy/MBq
Estimated Absorbed Dose of Organ, Skin [1]: 5.99E-03 mGy/MBq
Estimated Absorbed Dose of Organ, Small Intestine [1]: 1.15E-02 mGy/MBq
Estimated Absorbed Dose of Organ, Spleen [1]: 8.72E-03 mGy/MBq
Estimated Absorbed Dose of Organ, Stomach Wall [1]: 9.21E-03 mGy/MBq
Estimated Absorbed Dose of Organ, Testes [1]: 9.57E-03 mGy/MBq
Estimated Absorbed Dose of Organ, Thymus [1]: 9.60E-03 mGy/MBq
Estimated Absorbed Dose of Organ, Thyroid [1]: 7.39E-03 mGy/MBq
Estimated Absorbed Dose of Organ, ULI Wall [1]: 1.01E-02 mGy/MBq
Estimated Absorbed Dose of Organ, Urinary Bladder Wall [1]: 1.43E-01 † mGy/MBq
Estimated Absorbed Dose, Total Body [1]: 9.30E-03 mGy/MBq
Normalised Residence Time (h), Average: Remaining [3]: 1.36 h
Effective Dose [4]: 7.95E-02 mSv/MBq
Estimated Absorbed Dose of Organ, Adrenals [4]: 1.20E-02 mGy/MBq
Estimated Absorbed Dose of Organ, Brain [4]: 6.80E-03 mGy/MBq
Estimated Absorbed Dose of Organ, Breasts [4]: 7.63E-03 mGy/MBq
Estimated Absorbed Dose of Organ, Gallbladder Wall [4]: 1.27E-02 mGy/MBq
Estimated Absorbed Dose of Organ, Heart Wall [4]: 3.36E-02 mGy/MBq
Estimated Absorbed Dose of Organ, Kidneys [4]: 3.95E-02 mGy/MBq
Estimated Absorbed Dose of Organ, LLI Wall [4]: 2.13E-01 ‡ mGy/MBq
Estimated Absorbed Dose of Organ, Liver [4]: 1.20E-02 mGy/MBq
Estimated Absorbed Dose of Organ, Lungs [4]: 8.85E-03 mGy/MBq
Estimated Absorbed Dose of Organ, Muscle [4]: 1.42E-02 mGy/MBq
Estimated Absorbed Dose of Organ, Osteogenic Cells [4]: 1.64E-02 mGy/MBq
Estimated Absorbed Dose of Organ, Ovaries [4]: 4.21E-02 mGy/MBq
Estimated Absorbed Dose of Organ, Pancreas [4]: 1.23E-02 mGy/MBq
Estimated Absorbed Dose of Organ, Red Marrow [4]: 1.35E-02 mGy/MBq
Estimated Absorbed Dose of Organ, Skin [4]: 8.59E-03 mGy/MBq
Estimated Absorbed Dose of Organ, Small Intestine [4]: 2.39E-02 mGy/MBq
Estimated Absorbed Dose of Organ, Spleen [4]: 1.16E-02 mGy/MBq
Estimated Absorbed Dose of Organ, Stomach Wall [4]: 1.21E-02 mGy/MBq
Estimated Absorbed Dose of Organ, Thymus [4]: 9.63E-03 mGy/MBq
Estimated Absorbed Dose of Organ, Thyroid [4]: 8.07E-03 mGy/MBq
Estimated Absorbed Dose of Organ, ULI Wall [4]: 1.93E-02 mGy/MBq
Estimated Absorbed Dose of Organ, Urinary Bladder Wall [4]: 7.75E-01 † mGy/MBq
Estimated Absorbed Dose of Organ, Uterus [4]: 5.40E-02 § mGy/MBq
Estimated Absorbed Dose, Total Body [4]: 1.49E-02 mGy/MBq
Compound: O=C[C@H]([18F])[C@@H](O)[C@H](O)[C@H](O)CO [FDG, 2-deoxy-2-[^18F]fluoro-D-glucose]
organs predicted to receive the highest absorbed doses (ranking) [2]: the urinary bladder, followed by the lower large intestinal (LLI) wall and kidneys

Effective Dose [1]: 2.17E-02 mSv/MBq
Estimated Absorbed Dose of Organ, Adrenals [1]: 6.76E-03 mGy/MBq
Estimated Absorbed Dose of Organ, Brain [1]: 2.27E-03 mGy/MBq
Estimated Absorbed Dose of Organ, Breasts [1]: 4.34E-03 mGy/MBq
Estimated Absorbed Dose of Organ, Gallbladder Wall [1]: 7.11E-03 mGy/MBq
Estimated Absorbed Dose of Organ, Heart Wall [1]: 1.28E-02 mGy/MBq
Estimated Absorbed Dose of Organ, Kidneys [1]: 2.74E-02 ‡ mGy/MBq
Estimated Absorbed Dose of Organ, LLI Wall [1]: 5.51E-02 § mGy/MBq
Estimated Absorbed Dose of Organ, Liver [1]: 7.32E-03 mGy/MBq
Estimated Absorbed Dose of Organ, Lungs [1]: 6.59E-03 mGy/MBq
Estimated Absorbed Dose of Organ, Muscle [1]: 6.45E-03 mGy/MBq
Estimated Absorbed Dose of Organ, Osteogenic Cells [1]: 8.36E-03 mGy/MBq
Estimated Absorbed Dose of Organ, Pancreas [1]: 6.93E-03 mGy/MBq
Estimated Absorbed Dose of Organ, Red Marrow [1]: 6.11E-03 mGy/MBq
Estimated Absorbed Dose of Organ, Skin [1]: 4.44E-03 mGy/MBq
Estimated Absorbed Dose of Organ, Small Intestine [1]: 9.30E-03 mGy/MBq
Estimated Absorbed Dose of Organ, Spleen [1]: 6.39E-03 mGy/MBq
Estimated Absorbed Dose of Organ, Stomach Wall [1]: 6.44E-03 mGy/MBq
Estimated Absorbed Dose of Organ, Testes [1]: 8.41E-03 mGy/MBq
Estimated Absorbed Dose of Organ, Thymus [1]: 5.44E-03 mGy/MBq
Estimated Absorbed Dose of Organ, Thyroid [1]: 5.10E-03 mGy/MBq
Estimated Absorbed Dose of Organ, ULI Wall [1]: 8.07E-03 mGy/MBq
Estimated Absorbed Dose of Organ, Urinary Bladder Wall [1]: 1.75E-01 † mGy/MBq
Estimated Absorbed Dose, Total Body [1]: 6.69E-03 mGy/MBq
organs predicted to receive the highest absorbed doses (ranking) [2]: urinary bladder > LLI wall > kidneys
Normalised Residence Time (h), Average: Remaining [3]: 1 h
Effective Dose [4]: 8.22E-02 mSv/MBq
Estimated Absorbed Dose of Organ, Adrenals [4]: 9.77E-03 mGy/MBq
Estimated Absorbed Dose of Organ, Brain [4]: 1.87E-03 mGy/MBq
Estimated Absorbed Dose of Organ, Breasts [4]: 5.49E-03 mGy/MBq
Estimated Absorbed Dose of Organ, Gallbladder Wall [4]: 1.07E-02 mGy/MBq
Estimated Absorbed Dose of Organ, Heart Wall [4]: 7.79E-03 mGy/MBq
Estimated Absorbed Dose of Organ, Kidneys [4]: 4.85E-02§ mGy/MBq
Estimated Absorbed Dose of Organ, LLI Wall [4]: 1.68E-01 ‡ mGy/MBq
Estimated Absorbed Dose of Organ, Liver [4]: 1.06E-02 mGy/MBq
Estimated Absorbed Dose of Organ, Lungs [4]: 5.19E-03 mGy/MBq
Estimated Absorbed Dose of Organ, Muscle [4]: 1.30E-02 mGy/MBq
Estimated Absorbed Dose of Organ, Osteogenic Cells [4]: 1.30E-02 mGy/MBq
Estimated Absorbed Dose of Organ, Ovaries [4]: 4.12E-02 mGy/MBq
Estimated Absorbed Dose of Organ, Pancreas [4]: 9.72E-03 mGy/MBq
Estimated Absorbed Dose of Organ, Red Marrow [4]: 1.18E-02 mGy/MBq
Estimated Absorbed Dose of Organ, Skin [4]: 7.18E-03 mGy/MBq
Estimated Absorbed Dose of Organ, Small Intestine [4]: 2.22E-02 mGy/MBq
Estimated Absorbed Dose of Organ, Spleen [4]: 9.42E-03 mGy/MBq
Estimated Absorbed Dose of Organ, Stomach Wall [4]: 9.44E-03 mGy/MBq
Estimated Absorbed Dose of Organ, Thymus [4]: 6.68E-03 mGy/MBq
Estimated Absorbed Dose of Organ, Thyroid [4]: 5.90E-03 mGy/MBq
Estimated Absorbed Dose of Organ, ULI Wall [4]: 1.78E-02 mGy/MBq
Estimated Absorbed Dose of Organ, Urinary Bladder Wall [4]: 9.66E-01 † mGy/MBq
Estimated Absorbed Dose of Organ, Uterus [4]: 6.04E-02 mGy/MBq
Estimated Absorbed Dose, Total Body [4]: 1.33E-02 mGy/MBq
Compound: NOTA-RGDfK [existing Al^18F-labelled NOTA-RGDfK peptide PET radiotracer; precursor NOTA-RGDfK (1)]
